Results taken from patent US7777030B2, “Compositions and methods for the treatment and prevention of disease” (Centre National de la Recherge Scientifique (CNRS), priority 2005, dated 2010).

Columns and labels:
[1] = tested on: primary mouse hepatocyte culture; assay: toxicity on primary mouse hepatocyte culture; type: cell-based; details: tested at different doses (6, 25-100 μg/ml)
[2] = tested on: malaria liver stage (LS) parasites; assay: effect on sporozoite invasion and malaria liver stage development in hepatocytes; type: cell-based; details: compounds added at sporozoite invasion and during liver stage development; schizonts counted in 48 hours cultures; FIG. 5

Q: `CN1CNC(=O)NC(Cc2ccccc2)C1=O` (stereo not shown) [4b] was tested. Which “toxicity on primary mouse hepatocyte culture” value [1] did it give?
A: The value was “non toxic”.

Q: And the “effect on liver parasites / LS development (schizont number)” value [2]?
A: Its value is “inhibit significantly and repeatedly”.

Q: `CN1CN(Cc2ccccc2)C(=O)NC(Cc2ccccc2)C1=O` (stereo not shown) [8a] was tested. Which “toxicity on primary mouse hepatocyte culture” value [1] did it give?
A: Its value is “non toxic”.

Q: What about the “effect on liver parasites / LS development (schizont number)” value [2] of the same compound?
A: Its value is “inhibit significantly and repeatedly”.
